The values below come from patent publication US20260337193A1, “SMALL MOLECULE INHIBITORS OF UBIQUITIN SPECIFIC PROTEASE 1 (USP1) AND USES THEREOF” (Insilico Medicine IP Limited, priority 2023, published 2026).

As usually defined, the IC50 is the midpoint of a concentration-inhibition curve.

For one test, the system named is MDA-MB-436 cells. As to the kind of experiment: MDA-MB-436 breast cancer cell proliferation assay (CellTiter-Glo). The format is cell-based. The settings on record: Homo sapiens, 168 h, 7 days, 37° C. The method, then: Example A2: MDA-MB-436 Breast Cancer Cell Culture
MDA-MB-436 cells were grown in Leibovitz's L-15 medium with 10 μg/ml insulin, 16 μg/ml glutathione, 10% FBS. Cells were passaged at subconfluence after trypsinization and maintained in incubators at 37° C. in a humidified atmosphere with 5% CO2.
Example A3: MDA-MB-436 Breast Cancer Cell Proliferation Assay
Cell proliferation was determined using CellTiter-Glo® Luminescent Cell Viability Assay (Promega, #G7573). MDA-MB-436 cells were seeded in 384-well plates and allowed to attach for 24 h. Compounds were added into 384-well plate by ECHO, and incubated at 37° C. in a humidified atmosphere with 5% CO2. After 7 days, CellTiter-Glo® was added into 384 well plates, contents were mixed on an orbital shaker at 400 g for 2 min before centrifuging the plate for 2 min at 1000 rpm. After incubation at RT for 30 min, luminescence was read on envision.
In general terms: ATP-based viability assays read luminescence as a measure of living cells.

The target of test [1] is T1, Human recombinant USP1/UAF1 (Homo sapiens, UniProt O94782).
T1 construct: purchased R & D E-568-050; host or cells: baculovirus infected Sf21 cells
T1 sequence (O94782 whole entry): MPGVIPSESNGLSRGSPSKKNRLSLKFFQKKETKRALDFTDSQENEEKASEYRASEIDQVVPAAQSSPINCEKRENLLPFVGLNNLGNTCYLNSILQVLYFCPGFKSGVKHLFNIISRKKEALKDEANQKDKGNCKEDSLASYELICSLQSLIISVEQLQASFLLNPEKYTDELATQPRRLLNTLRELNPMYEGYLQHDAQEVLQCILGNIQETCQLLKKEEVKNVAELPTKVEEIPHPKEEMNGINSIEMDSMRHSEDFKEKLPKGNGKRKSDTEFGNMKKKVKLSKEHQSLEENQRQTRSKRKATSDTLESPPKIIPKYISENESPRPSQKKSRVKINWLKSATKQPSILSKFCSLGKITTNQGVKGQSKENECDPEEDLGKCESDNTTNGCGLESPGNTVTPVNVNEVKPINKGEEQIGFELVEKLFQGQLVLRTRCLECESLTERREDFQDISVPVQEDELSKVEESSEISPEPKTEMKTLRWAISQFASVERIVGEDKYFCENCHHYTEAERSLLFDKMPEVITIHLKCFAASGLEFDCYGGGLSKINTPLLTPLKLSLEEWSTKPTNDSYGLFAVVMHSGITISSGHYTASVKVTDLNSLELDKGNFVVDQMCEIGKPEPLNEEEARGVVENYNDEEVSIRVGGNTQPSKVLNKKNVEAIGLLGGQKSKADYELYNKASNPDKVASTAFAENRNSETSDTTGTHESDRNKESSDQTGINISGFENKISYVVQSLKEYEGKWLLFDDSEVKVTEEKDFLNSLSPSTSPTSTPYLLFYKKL
T1 sequence (Q8TAF3 whole entry partner): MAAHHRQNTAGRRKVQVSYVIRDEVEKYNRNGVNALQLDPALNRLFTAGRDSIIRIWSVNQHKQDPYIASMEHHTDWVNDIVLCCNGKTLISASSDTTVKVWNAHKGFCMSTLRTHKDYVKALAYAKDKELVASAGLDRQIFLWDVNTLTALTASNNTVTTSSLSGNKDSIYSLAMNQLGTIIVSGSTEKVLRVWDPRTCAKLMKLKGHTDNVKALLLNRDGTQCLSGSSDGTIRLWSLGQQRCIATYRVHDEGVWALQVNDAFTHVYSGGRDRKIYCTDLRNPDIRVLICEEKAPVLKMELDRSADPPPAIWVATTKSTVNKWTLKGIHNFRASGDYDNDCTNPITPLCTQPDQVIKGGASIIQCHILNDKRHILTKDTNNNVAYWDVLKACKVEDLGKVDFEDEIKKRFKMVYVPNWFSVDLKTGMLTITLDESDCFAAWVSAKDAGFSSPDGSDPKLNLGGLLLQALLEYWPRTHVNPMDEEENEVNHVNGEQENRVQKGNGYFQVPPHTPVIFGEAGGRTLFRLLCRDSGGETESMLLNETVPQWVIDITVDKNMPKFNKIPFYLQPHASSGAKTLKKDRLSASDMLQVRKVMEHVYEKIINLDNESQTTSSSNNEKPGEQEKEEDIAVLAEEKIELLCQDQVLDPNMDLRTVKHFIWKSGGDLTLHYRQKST
As to the kind of experiment: Enzymatic assay: USP1/UAF1 deubiquitination of Ubiquitin Rhodamine 110 (kinetic fluorescence). The format is biochemical. To be noted: 2 nM USP1/UAF1, 15 min preincubation at RT, HEPES pH 8.0, 500 nM Ubiquitin Rhodamine 110. The method, then:
Example A1: Enzymatic Assay
Human recombinant USP1/UAF1 expressed in baculovirus infected Sf21 cells were used (R & D, E-568-050). Test compound and/or vehicle was incubated with 2 nM of USP1/UAF1 in modified HEPES buffer pH 8.0 for 15 minutes at RT. The reaction was initiated by addition of 500 nM of Ubiquitin Rhodamine 110 (R & D, U-555-050) for kinetic reading. Slope change of fluorescence intensity was read spectrofluorimetrically at 485 nm/535 nm. Dose response of test compounds or reference compound ML-323 was analyzed by nonlinear regression of GraphPad prism software.

In the case of `CC(C)c1ncccc1-c1ncnc2c1CN(c1ccc(-c3nc(C(F)(F)F)cn3C)cc1)CC2` [Compound 1, 4-(2-isopropylpyridin-3-yl)-6-(4-(1-methyl-4-(trifluoromethyl)-1H-imidazol-2-yl)phenyl)-5,6,7,8-tetrahydropyrido[4,3-d]pyrimidine], the IC50 (with MDA-MB-436 cells; in test [1]) was 1000 to 10000 nM in each case.
In the case of `COc1ncnc(C2CC2)c1-c1nccc2c1CN(c1ccc(-c3nc(C(F)(F)F)cn3C)cn1)CC2` [Compound 2, 8-(4-cyclopropyl-6-methoxypyrimidin-5-yl)-2-(5-(1-methyl-4-(trifluoromethyl)-1H-imidazol-2-yl)pyridin-2-yl)-1,2,3,4-tetrahydro-2,7-naphthyridine], the IC50 (in the test on MDA-MB-436 cells; in test [1]) was 50 to 1000 nM throughout.
Take `COc1ncnc(C2CC2)c1-c1nnn2c1CN(c1ccc(-c3nc(C(F)(F)F)cn3C)cc1)CC2` [Compound 3, 3-(4-cyclopropyl-6-methoxypyrimidin-5-yl)-5-(4-(1-methyl-4-(trifluoromethyl)-1H-imidazol-2-yl)phenyl)-4,5,6,7-tetrahydro-[1,2,3]triazolo[1,5-a]pyrazine]: the IC50 (in the test on MDA-MB-436 cells; in test [1]) was 50 to 1000 nM each time.
For `COc1ncnc(C2CC2)c1-c1nn(C)c2c1CN(c1ncc(-c3nc(C(F)(F)F)cn3C)s1)C2` [Compound 4, 2-(3-(4-cyclopropyl-6-methoxypyrimidin-5-yl)-1-methyl-4,6-dihydropyrrolo[3,4-c]pyrazol-5(1H)-yl)-5-(1-methyl-4-(trifluoromethyl)-1H-imidazol-2-yl)thiazole], the IC50 (in the test on MDA-MB-436 cells; in test [1]) was 50 to 1000 nM throughout.
On to `COc1ncnc(C2CC2)c1-c1nn(C)c2c1CN(c1ccc(-c3nc(C(F)(F)F)cn3C)cn1)C2` [Compound 5, 3-(4-cyclopropyl-6-methoxypyrimidin-5-yl)-1-methyl-5-(5-(1-methyl-4-(trifluoromethyl)-1H-imidazol-2-yl)pyridin-2-yl)-1,4,5,6-tetrahydropyrrolo[3,4-c]pyrazole], for which the IC50 in test [1] was 1000 to 10000 nM.
As to `COc1ncnc(C2CC2)c1-c1nn(C)c2c1CN(c1ccc(-c3nc(C(F)(F)F)cn3C)nc1)C2` [Compound 6, 3-(4-cyclopropyl-6-methoxypyrimidin-5-yl)-1-methyl-5-(6-(1-methyl-4-(trifluoromethyl)-1H-imidazol-2-yl)pyridin-3-yl)-1,4,5,6-tetrahydropyrrolo[3,4-c]pyrazole], the IC50 in test [1] lay within 1000 to 10000 nM.
Same read-out and setting: in the case of `COc1ncnc(C2CC2)c1-c1nn(C)c2c1CN(c1ccc(-c3nc(C(F)(F)F)cn3C)cc1)C2` [Compound 7, 3-(4-cyclopropyl-6-methoxypyrimidin-5-yl)-1-methyl-5-(4-(1-methyl-4-(trifluoromethyl)-1H-imidazol-2-yl)phenyl)-1,4,5,6-tetrahydropyrrolo[3,4-c]pyrazole] it was 50 to 1000 nM.
In the case of `COc1ncnc(C2CC2)c1-c1nn(C)c2c1CN(c1ncc(-c3nc(C(F)(F)F)cn3C(C)C)s1)C2` [Compound 8, 2-(3-(4-cyclopropyl-6-methoxypyrimidin-5-yl)-1-methyl-4,6-dihydropyrrolo[3,4-c]pyrazol-5(1H)-yl)-5-(1-isopropyl-4-(trifluoromethyl)-1H-imidazol-2-yl)thiazole], the IC50 (in the test with MDA-MB-436 cells; in test [1]) was 50 to 1000 nM each time.
`CC(C)c1ncccc1-c1nn(C)c2c1CN(c1ncc(-c3nc(C(F)(F)F)cn3C)s1)C2` [Compound 9, 2-(3-(2-isopropylpyridin-3-yl)-1-methyl-4,6-dihydropyrrolo[3,4-c]pyrazol-5(1H)-yl)-5-(1-methyl-4-(trifluoromethyl)-1H-imidazol-2-yl)thiazole]: in test [1], the IC50 was in the range of 50 to 1000 nM.
Turning to `COc1ncnc(C2CC2)c1-c1nn(C)c2c1CN(c1cnc(-c3nc(C(F)(F)F)cn3C)s1)C2` [Compound 10, 5-(3-(4-cyclopropyl-6-methoxypyrimidin-5-yl)-1-methyl-4,6-dihydropyrrolo[3,4-c]pyrazol-5(1H)-yl)-2-(1-methyl-4-(trifluoromethyl)-1H-imidazol-2-yl)thiazole], the IC50 (in the test with MDA-MB-436 cells; in test [1]) was 50 to 1000 nM in each case.
For the compound `COc1ncnc(C2CC2)c1-n1nc(C)c2c1CN(c1ccc(-c3nc(C(F)(F)F)cn3C)cn1)CC2` [Compound 11, 1-(4-cyclopropyl-6-methoxypyrimidin-5-yl)-3-methyl-6-(5-(1-methyl-4-(trifluoromethyl)-1H-imidazol-2-yl)pyridin-2-yl)-4,5,6,7-tetrahydro-1H-pyrazolo[3,4-c]pyridine], the values for the IC50 (with MDA-MB-436 cells; in test [1]) were below 50 nM and 50 to 1000 nM, respectively.
Consider `CCn1cc(C(F)(F)F)nc1-c1ccc(N2CCc3c(C)nn(-c4c(OC)ncnc4C4CC4)c3C2)nc1` [Compound 12, 1-(4-cyclopropyl-6-methoxypyrimidin-5-yl)-6-(5-(1-ethyl-4-(trifluoromethyl)-1H-imidazol-2-yl)pyridin-2-yl)-3-methyl-4,5,6,7-tetrahydro-1H-pyrazolo[3,4-c]pyridine], for which the IC50 in the test with MDA-MB-436 cells is below 50 nM; in test [1], 50 to 1000 nM.
Consider `COc1ncnc(C2CC2)c1-n1nc(C)c2c1CN(c1ccc(-c3nc(C(F)(F)F)cn3C(C)C)cn1)CC2` [Compound 13, 1-(4-cyclopropyl-6-methoxypyrimidin-5-yl)-6-(5-(1-isopropyl-4-(trifluoromethyl)-1H-imidazol-2-yl)pyridin-2-yl)-3-methyl-4,5,6,7-tetrahydro-1H-pyrazolo[3,4-c]pyridine], for which the IC50 (with MDA-MB-436 cells; in test [1]) was 50 to 1000 nM each time.
With `COc1ncnc(C2CC2)c1-n1nc(C)c2c1CN(c1ccc(-c3nc(C(F)(F)F)cn3C)nc1)CC2` [Compound 14, 1-(4-cyclopropyl-6-methoxypyrimidin-5-yl)-3-methyl-6-(6-(1-methyl-4-(trifluoromethyl)-1H-imidazol-2-yl)pyridin-3-yl)-4,5,6,7-tetrahydro-1H-pyrazolo[3,4-c]pyridine], the IC50 (in the test with MDA-MB-436 cells; in test [1]) was 50 to 1000 nM throughout.
`COc1ncnc(C2CC2)c1-n1nc(C)c2c1CN(c1cnc(-c3nc(C(F)(F)F)cn3C)cn1)CC2` [Compound 15, 1-(4-cyclopropyl-6-methoxypyrimidin-5-yl)-3-methyl-6-(5-(1-methyl-4-(trifluoromethyl)-1H-imidazol-2-yl)pyrazin-2-yl)-4,5,6,7-tetrahydro-1H-pyrazolo[3,4-c]pyridine]: the IC50 (with MDA-MB-436 cells; in test [1]) was below 50 nM in each case.
For `COc1ncnc(C2CC2)c1-n1nc(C)c2c1CN(c1ncc(-c3nc(C(F)(F)F)cn3C)cn1)CC2` [Compound 16, 1-(4-cyclopropyl-6-methoxypyrimidin-5-yl)-3-methyl-6-(5-(1-methyl-4-(trifluoromethyl)-1H-imidazol-2-yl)pyrimidin-2-yl)-4,5,6,7-tetrahydro-1H-pyrazolo[3,4-c]pyridine], the IC50 (in the test with MDA-MB-436 cells; in test [1]) was 50 to 1000 nM each time.
Regarding `COc1ncnc(C2CC2)c1-n1nc(C)c2c1CN(c1ccc(-c3nc(C(F)(F)F)cn3C)c(F)c1)CC2` [Compound 17, 1-(4-cyclopropyl-6-methoxypyrimidin-5-yl)-6-(3-fluoro-4-(1-methyl-4-(trifluoromethyl)-1H-imidazol-2-yl)phenyl)-3-methyl-4,5,6,7-tetrahydro-1H-pyrazolo[3,4-c]pyridine], the IC50 (in the test with MDA-MB-436 cells; in test [1]) was below 50 nM in each case.
On to `COc1ncnc(C2CC2)c1-n1nc(C)c2c1CN(c1ccc(-c3nc(C(F)(F)F)cn3C)cc1F)CC2` [Compound 18, 1-(4-cyclopropyl-6-methoxypyrimidin-5-yl)-6-(2-fluoro-4-(1-methyl-4-(trifluoromethyl)-1H-imidazol-2-yl)phenyl)-3-methyl-4,5,6,7-tetrahydro-1H-pyrazolo[3,4-c]pyridine], for which the figures for the IC50 (in the test on MDA-MB-436 cells; in test [1]) were below 50 nM and 50 to 1000 nM, respectively.
`Cc1nn(-c2ccccc2C(C)C)c2c1CCN(c1ccc(-c3nc(C(F)(F)F)cn3C)cn1)C2` [Compound 19, 1-(2-isopropylphenyl)-3-methyl-6-(5-(1-methyl-4-(trifluoromethyl)-1H-imidazol-2-yl)pyridin-2-yl)-4,5,6,7-tetrahydro-1H-pyrazolo[3,4-c]pyridine]: the half-inhibitory concentration (IC50) (with MDA-MB-436 cells; in test [1]) was below 50 nM in each case.
On to `COc1ncnc(C2CC2)c1-n1nc(C)c2c1CN(c1ccc(-n3nc(C(F)(F)F)cc3C)cn1)CC2` [Compound 20, 1-(4-cyclopropyl-6-methoxypyrimidin-5-yl)-3-methyl-6-(5-(5-methyl-3-(trifluoromethyl)-1H-pyrazol-1-yl)pyridin-2-yl)-4,5,6,7-tetrahydro-1H-pyrazolo[3,4-c]pyridine], for which the IC50 (in the test with MDA-MB-436 cells; in test [1]) was 50 to 1000 nM throughout.
Take `COc1ncnc(C2CC2)c1-n1nc(C)c2c1CN(c1ncc(-c3nc(C(F)(F)F)cn3C)s1)CC2` [Compound 21, 2-(1-(4-cyclopropyl-6-methoxypyrimidin-5-yl)-3-methyl-1,4,5,7-tetrahydro-6H-pyrazolo[3,4-c]pyridin-6-yl)-5-(1-methyl-4-(trifluoromethyl)-1H-imidazol-2-yl)thiazole]: the IC50 (with MDA-MB-436 cells; in test [1]) was 50 to 1000 nM each time.
